According to patent US20240009175A9, “TETRAZOLE DERIVATIVES” (Merck Patent GmbH, priority 2020, published 2024):

Experiments:
human rec ACSS2 = human rec ACSS2 (Homo sapiens (Human), UniProt Q9NR19); assay: Biochemical activity ACSS2 assay (AMP-Glo); conditions: human recombinant ACSS2, AMP-Glo, 180 min at 37° C.
From the text: Biochemical Activity ACSS2 Assay (IC50 ACSS2 Biochemical)
The biochemical activity assay for ACSS2 is based on the detection of released AMP by AMP-Glo™ Assay kit (Promega, Madison). The assay is run in three steps: the enzymatic reaction in which human rec ACSS2 activates acetate with ATP and Coenzyme A as cosubstrates to acetyl-CoA thereby releasing AMP and the detection reaction of AMP by AMP Glo assay in which after the destruction of the residual ATP with AMP Glo reagent 1 produced AMP is converted to ATP that is measured in a luciferase assay system (detection reagent). The ACSS2 activity correlates with the detected luminescence signal.
The assay was performed in Perkin Elmer 384 well white Proxiplates in a total volume of 8 μl.
1 nM (fc)C-term myc tagged ACSS2 (human, recombinant, Origene, Rockville, US) and a mixture of 100 μM (fc) ATP, 100 μM (fc) Coenzyme A and 500 μM (fc) sodium acetate were incubated in a total volume of 5 μl (50 mM Hepes, 1 mM Mg-chloride, 150 mM NaCl, 1 mM DTT, 0.01% (w/v) BSA, 0.3% DMSO, pH 7.5) in the absence or presence of the test compound (10 dilution concentrations, start conc 30 μM) for 180 min at 37° C. The reaction was stopped and residual ATP destroyed by the addition of 1 μl AMP Glo reagent solution (Promega, Madison, US). After 1h incubation at room temperature 2 μl of AMP Glo detection reagent was added and the assay was incubated for 0.75 hr at room temperature. The luminescence signal was measured with an Envision multimode reader (Perkin Elmer LAS Germany GmbH) at 700 nm in luminescence mode. The full value used was the inhibitor-free reaction. The pharmacological zero value was generated by addition of ACSS2 inhibitor (Ac-CoA Synthase Inhibitor—CAS 508186-14-9-Calbiochem) in a final concentration of 5 μM. The inhibitory values (IC50) were determined using the program Assay Analyzer® from GeneData.

ACSS2 = ACSS2 (Homo sapiens (Human), UniProt Q9NR19); assay: Cellular assay of 14C acetate incorporation into histones (IC50 ACSS2 cellular histone); format: cell-based; conditions: HCT-15 cells
From the text: Cellular Assay of ^14C Acetate Incorporation into Histones (IC50 ACSS2 Cellular Histone)
This protocol describes a cellular assay capable to quantify endogenous histone acetylation activity in the human HCT-15 cancer cell line following the incorporation of extracellularly administered radiolabeled ^14C acetate with a scintillation based read out on acid extracted histones.
HCT-15 cells are trypsinized, washed and suspended in DMEM culture medium supplemented with penicillin/streptomycin (100 U/mL), sodium pyruvate (1 mM), and 10% FBS
Compounds serial dilutions are prepared in 96-well V-bottom microplate from 10 mM stock solutions in DMSO. From these dilutions 0.5 μl are transferred to a fresh plate including pure DMSO as negative control. The dilutions are prepared such, that the final concentration in the assay is 1/400 of the concentration in the serial dilution. The final DMSO concentration in the assay is 0.25%.
The cell suspension is seeded at densities of 2×10^5 cells per 170 μl into individual wells of a 96 well plate each containing 0.5 μl aliquots of compound serial dilutions and are kept for 1 h in a cell incubator. To each well 30 μL of a mixture containing 0.5 mCi/mL of ^14C-acetate with full medium are added. Then, the wells are incubated for 3 hrs in the cell incubator.
Further steps of the procedure should be conducted on ice or instrumentations precooled to 4° C. Cells are sedimented in the 96-well V-bottom microplate by centrifugation (Eppendorf 5804 R) at 1200 rpm for 5 min. The supernatant is removed and the cells are washed twice with 200 μL of PBS-NaB (5 mM sodium butyrate) buffer by iterative resuspension and centrifugation. Finally, the cells are resuspended in 50 μL of TEB (PBS-NaB+0.5% Triton X-100) and left on ice for 10 minutes. After centrifugation at 2300 rpm for 10 minutes at 4° C. the supernatant is removed, the remaining pellet is suspended in 50 μL of 0.2M HCl and incubated over night at 4° C. After incubation the well plate is shaken for 2 minutes in a MTP plate shaker set to 1200 rpm and then centrifuged at 3700 rpm for 10 mins. The lysate is carefully aspirated (˜43 μL) and transferred into a white MTP plate (Greiner bio-one 65509). 90 μL of Ultima Gold XR scintillation cocktail are added and the plates are sealed with a transparent cover tape before mixing vigorously using plate shaker set to 1200 rpm. Radioactivity from ^14C incorporation in the wells is measured as CPM count in a MicroBeta Trilux luminescence counter.

CHO-K1 cells = assay: Micronucleus assay (MNT) in vitro; format: cell-based; set-up: key: A: negative, putative negative (micronuclei detected beyond threshold of 60% cyctotoxicity); B: positive; conditions: 24 hrs treatment, 0.2 μM to 100 μM
Experimental: The in vitro MNT assay is performed in CHO-K1 cells due to their stable and well-characterized karyotype, high sensitivity and suitability for a high content imaging approach. They have a basal spontaneous micronucleus frequency of 3-4%.
24 hrs after plating CHO-K1 cells are treated with test compounds for 24 hrs (in duplicates; fixed concentration ranges from 0.2 μM to 100 μM in 2-fold dilution steps). After a medium change cells are incubated for 24 hrs with Cytochalasin B to block cytokinesis and are then fixed and nuclei/micronuclei visualized with a DNA stain. Images are acquired with the Molecular Devices high content imagers IXU or IXM and are analyzed with the dedicated MetaXpress software micronucleus module. Criteria for scoring of micronuclei (MN) are the following: • diameter of the MN should be less than ⅓ of the main nucleus • MN should be separated from or marginally overlap with main nucleus (=no blebs) • MN should have similar staining as the main nucleus
At least 1000 binucleated cells are evaluated per treatment replicate. Mitomycin C is used as reference stimulator of micronucleus formation. Cytotoxicity is evaluated in parallel and defined by comparing total nuclei count in compound-treated samples to neutral control samples treated with vehicle only (1% DMSO) (100% cytotoxicity means all cells are dead or lost).
A test compound is regarded as POSITIVE if generation of micronuclei and exhibition of less than 60% cytotoxicity at the same concentration can be observed.
Compounds are scored only in the soluble concentration range.
Experimental data of the compounds shown in Table 1 in the MNT assay are shown in Table 2 below and classified in the following groups: […]

Sequence of ACSS2 (Q9NR19 whole entry): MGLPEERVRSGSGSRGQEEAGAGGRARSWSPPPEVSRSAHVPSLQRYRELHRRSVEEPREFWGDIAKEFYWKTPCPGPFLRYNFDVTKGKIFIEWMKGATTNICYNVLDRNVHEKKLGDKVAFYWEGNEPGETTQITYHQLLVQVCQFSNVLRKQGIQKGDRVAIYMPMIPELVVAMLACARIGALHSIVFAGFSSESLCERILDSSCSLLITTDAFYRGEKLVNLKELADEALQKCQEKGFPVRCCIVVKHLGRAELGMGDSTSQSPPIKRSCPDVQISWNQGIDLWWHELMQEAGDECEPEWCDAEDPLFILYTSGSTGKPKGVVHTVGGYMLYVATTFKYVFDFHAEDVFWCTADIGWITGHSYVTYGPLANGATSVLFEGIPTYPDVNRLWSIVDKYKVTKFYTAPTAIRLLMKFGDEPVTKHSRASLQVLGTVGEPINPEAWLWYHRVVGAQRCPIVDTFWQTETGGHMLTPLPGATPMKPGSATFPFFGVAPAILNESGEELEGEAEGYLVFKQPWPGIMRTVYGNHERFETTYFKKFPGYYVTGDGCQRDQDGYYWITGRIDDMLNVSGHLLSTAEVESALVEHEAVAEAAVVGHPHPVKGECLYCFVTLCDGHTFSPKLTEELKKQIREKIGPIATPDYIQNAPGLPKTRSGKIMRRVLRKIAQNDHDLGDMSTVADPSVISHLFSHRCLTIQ
Sequence of human rec ACSS2 (Q9NR19 whole entry): as above

| SMILES | IC50 (human rec ACSS2) | IC50 (ACSS2) | MNT (CHO-K1 cells) |
| --- | --- | --- | --- |
| CCc1c(C(O)(c2ccccc2)c2ccccn2)nc2cc(Cl)c(-c3nnn[nH]3)cn12 (single isomer, unassigned) [Compound 8, [7-chloro-3-ethyl-6-(1H-tetrazol-5-yl)imidazo[1,2-a]pyridin-2-yl]-phenyl-(2-pyridyl)methanol] | 1 to 10 nM | 100 to 10000 nM | A |
| CCn1c(C(O)(c2ccccc2)c2ccc(OC(F)F)cc2F)nc2nc(OC)c(-c3nnn[nH]3)cc21 (racemic) [Compound 47, [4-(difluoromethoxy)-2-fluorophenyl][1-ethyl-5-methoxy-6-(1H-1,2,3,4-tetrazol-5-yl)-1H-imidazo[4,5-b]pyridin-2-yl]phenylmethanol] | 1 to 10 nM | 1 to 10 nM | A |
| CCc1c(C(O)(c2ccccc2F)c2ccccc2F)nn2cc(Cl)c(-c3nnn[nH]3)cc12 [Compound 20, [6-Chloro-3-ethyl-5-(1H-tetrazol-5-yl)-pyrazolo[1,5-a]pyridin-2-yl]-bis-(2-fluoro-phenyl)-methanol] | 1 to 10 nM | 10 to 100 nM | A |
| CCn1c(C(O)(c2ccccc2)c2ccccc2C)nc2nc(OC)c(-c3nnn[nH]3)cc21 (racemic) [Compound 42, [1-ethyl-5-methoxy-6-(1H-1,2,3,4-tetrazol-5-yl)-1H-imidazo[4,5-b]pyridin-2-yl](2-methylphenyl)phenylmethanol] | 1 to 10 nM | 1 to 10 nM | A |
| CCn1c(C(O)(c2ccccc2F)c2ccccc2F)nc2ncc(-c3nnn[nH]3)cc21 [Compound 61, [1-ethyl-6-(1H-1,2,3,4-tetrazol-5-yl)-1H-imidazo[4,5-b]pyridin-2-yl]bis(2-fluorophenyl)methanol] | 10 to 100 nM | 100 to 10000 nM | A |
| CCn1c(C(O)(c2ccc(OC(F)F)cc2)c2ccccc2F)nc2nc(OC)c(-c3nnn[nH]3)cc21 (racemic) [Compound 52, [4-(difluoromethoxy)phenyl][1-ethyl-5-methoxy-6-(1H-1,2,3,4-tetrazol-5-yl)-1H-imidazo[4,5-b]pyridin-2-yl](2-fluorophenyl)methanol] | 1 to 10 nM | 1 to 10 nM | A |
| CCc1c(C(O)(c2ccccc2)c2ccccc2)nn2cc(F)c(-c3nnn[nH]3)cc12 [Compound 23, [3-Ethyl-6-fluoro-5-(1H-tetrazol-5-yl)-pyrazolo[1,5-a]pyridin-2-yl]-diphenyl-methanol] | 10 to 100 nM | 10 to 100 nM | A |
| Cc1nc2nc(C(O)(c3ccccc3F)c3ccccc3F)n(C)c2cc1-c1nnn[nH]1 [Compound 55, [1,5-dimethy-6-(1H-1,2,3,4-tetrazol-5-yl)-1H-imidazo[4,5-b]pyridin-2-yl]bis(2-fluorophenyl)methanol] | 0.01 to 1 nM | 10 to 100 nM | A |
| CCn1c(C(O)(c2ccccc2)c2cnn(C)c2)nc2nc(OC)c(-c3nnn[nH]3)cc21 (racemic) [Compound 36, [1-ethyl-5-methoxy-6-(1H-1,2,3,4-tetrazol-5-yl)-1H-imidazo[4,5-b]pyridin-2-yl](1-methyl-1H-pyrazol-4-yl)phenylmethanol] | 10 to 100 nM | 100 to 10000 nM | A |
| CCn1c(C(O)(c2ccsc2)c2ccsc2)nc2nc(OC)c(-c3nnn[nH]3)cc21 [Compound 29, [1-ethyl-5-methoxy-6-(1H-1,2,3,4-tetrazol-5-yl)-1H-imidazo[4,5-b]pyridin-2-yl]bis(thiophen-3-yl)methanol] | 1 to 10 nM | 10 to 100 nM | A |
| CCn1c(C(O)(c2ccccn2)c2cccs2)nc2nc(OC)c(-c3nnn[nH]3)cc21 (racemic) [Compound 26, [1-ethyl-5-methoxy-6-(1H-1,2,3,4-tetrazol-5-yl)-1H-imidazo[4,5-b]pyridin-2-yl](pyridin-2-yl)(thiophen-2-yl)methanol] | 10 to 100 nM | 1 to 10 nM | A |
